pEC50: −log10 of the molar value.
Tested on: human immunodeficiency virus type 1 (HIV-1)
Test: microbe, parasite or virus in culture
Type: cell-based
Details: Human immunodeficiency virus 1, HeLa, 48 h, HIV-1 luciferase reporter, HeLa cells, 48 hours after infection

| Compound | pEC50 |
| --- | --- |
| COc1nc2c(cc1CCc1ccc(F)cc1F)c(=O)c(C(=O)O)cn2[C@H](CO)C(C)C [Example 19, (S)-6-(2,4-difluorophenethyl)-1-(1-hydroxy-3-methylbutan-2-yl)-7-methoxy-4-oxo-1,4-dihydro-1,8-naphthyridine-3-carboxylic acid] | < 7.00 |
| COc1nc2c(cc1NCc1ccc(C)cc1)c(=O)c(C(=O)O)cn2[C@H](CO)C(C)C [Example 20A, (S)-1-(1-hydroxy-3-methylbutan-2-yl)-7-methoxy-6-(4-methylbenzylamino)-4-oxo-1,4-dihydro-1,8-naphthyridine-3-carboxylic acid] | < 7.00 |
| COc1nc2c(cc1NCc1cccc(Cl)c1F)c(=O)c(C(=O)O)cn2[C@H](CO)C(C)C [Example 20B, (S)-6-(3-chloro-2-fluorobenzylamino)-1-(1-hydroxy-3-methylbutan-2-yl)-7-methoxy-4-oxo-1,4-dihydro-1,8-naphthyridine-3-carboxylic acid] | < 7.00 |
| COc1nc2c(cc1NCc1cccc(F)c1F)c(=O)c(C(=O)O)cn2[C@H](CO)C(C)C [Example 20BB, (S)-6-(2,3-difluorobenzylamino)-1-(1-hydroxy-3-methylbutan-2-yl)-7-methoxy-4-oxo-1,4-dihydro-1,8-naphthyridine-3-carboxylic acid] | < 7.00 |
| COc1nc2c(cc1NCc1ccc(F)cc1)c(=O)c(C(=O)O)cn2[C@H](CO)C(C)C [Example 20C, (S)-6-(4-fluorobenzylamino)-1-(1-hydroxy-3-methylbutan-2-yl)-7-methoxy-4-oxo-1,4-dihydro-1,8-naphthyridine-3-carboxylic acid] | 7.00 to 8.00 |
| COc1nc2c(cc1NCc1cc(F)ccc1F)c(=O)c(C(=O)O)cn2[C@H](CO)C(C)C [Example 20CC, (S)-6-(2,5-difluorobenzylamino)-1-(1-hydroxy-3-methylbutan-2-yl)-7-methoxy-4-oxo-1,4-dihydro-1,8-naphthyridine-3-carboxylic acid] | < 7.00 |
| COc1nc2c(cc1NCc1ccccc1F)c(=O)c(C(=O)O)cn2[C@H](CO)C(C)C [Example 20D, (S)-6-(2-fluorobenzylamino)-1-(1-hydroxy-3-methylbutan-2-yl)-7-methoxy-4-oxo-1,4-dihydro-1,8-naphthyridine-3-carboxylic acid] | 7.00 to 8.00 |
| COc1nc2c(cc1NCc1cc(F)c(F)c(F)c1)c(=O)c(C(=O)O)cn2[C@H](CO)C(C)C [Example 20DD, (S)-1-(1-hydroxy-3-methylbutan-2-yl)-7-methoxy-4-oxo-6-(3,4,5-trifluorobenzylamino)-1,4-dihydro-1,8-naphthyridine-3-carboxylic acid] | < 7.00 |
| COc1nc2c(cc1NCc1cccc(F)c1)c(=O)c(C(=O)O)cn2[C@H](CO)C(C)C [Example 20E, (S)-6-(3-fluorobenzylamino)-1-(1-hydroxy-3-methylbutan-2-yl)-7-methoxy-4-oxo-1,4-dihydro-1,8-naphthyridine-3-carboxylic acid] | < 7.00 |
| COc1nc2c(cc1NCc1ccc(F)c(F)c1F)c(=O)c(C(=O)O)cn2[C@H](CO)C(C)C [Example 20EE, (S)-1-(1-hydroxy-3-methylbutan-2-yl)-7-methoxy-4-oxo-6-(2,3,4-trifluorobenzylamino)-1,4-dihydro-1,8-naphthyridine-3-carboxylic acid] | < 7.00 |
| COc1nc2c(cc1NCc1ccc(F)c(Cl)c1)c(=O)c(C(=O)O)cn2[C@H](CO)C(C)C [Example 20F, (S)-6-(3-chloro-4-fluorobenzylamino)-1-(1-hydroxy-3-methylbutan-2-yl)-7-methoxy-4-oxo-1,4-dihydro-1,8-naphthyridine-3-carboxylic acid] | < 7.00 |
| COc1nc2c(cc1NCc1cc(F)cc(F)c1F)c(=O)c(C(=O)O)cn2[C@H](CO)C(C)C [Example 20FF, (S)-1-(1-hydroxy-3-methylbutan-2-yl)-7-methoxy-4-oxo-6-(2,3,5-trifluorobenzylamino)-1,4-dihydro-1,8-naphthyridine-3-carboxylic acid] | < 7.00 |
| COc1nc2c(cc1NCCc1cccc(Cl)c1)c(=O)c(C(=O)O)cn2[C@H](CO)C(C)C [Example 20G, (S)-6-(3-chlorophenethylamino)-1-(1-hydroxy-3-methylbutan-2-yl)-7-methoxy-4-oxo-1,4-dihydro-1,8-naphthyridine-3-carboxylic acid] | < 7.00 |
| COc1nc2c(cc1NCc1c(F)ccc(F)c1F)c(=O)c(C(=O)O)cn2[C@H](CO)C(C)C [Example 20GG, (S)-1-(1-hydroxy-3-methylbutan-2-yl)-7-methoxy-4-oxo-6-(2,3,6-trifluorobenzylamino)-1,4-dihydro-1,8-naphthyridine-3-carboxylic acid] | 7.00 to 8.00 |
| COc1nc2c(cc1NCc1ccc(Cl)c(F)c1)c(=O)c(C(=O)O)cn2[C@H](CO)C(C)C [Example 20H, (S)-6-(4-chloro-3-fluorobenzylamino)-1-(1-hydroxy-3-methylbutan-2-yl)-7-methoxy-4-oxo-1,4-dihydro-1,8-naphthyridine-3-carboxylic acid] | < 7.00 |
| COc1nc2c(cc1NCc1cc(F)cc(F)c1)c(=O)c(C(=O)O)cn2[C@H](CO)C(C)C [Example 20HH, (S)-6-(3,5-difluorobenzylamino)-1-(1-hydroxy-3-methylbutan-2-yl)-7-methoxy-4-oxo-1,4-dihydro-1,8-naphthyridine-3-carboxylic acid] | < 7.00 |
| COc1nc2c(cc1NCc1cccc(Cl)c1)c(=O)c(C(=O)O)cn2[C@H](CO)C(C)C [Example 20I, (S)-6-(3-chlorobenzylamino)-1-(1-hydroxy-3-methylbutan-2-yl)-7-methoxy-4-oxo-1,4-dihydro-1,8-naphthyridine-3-carboxylic acid] | < 7.00 |
| COc1nc2c(cc1NCc1cc(F)c(F)cc1F)c(=O)c(C(=O)O)cn2[C@H](CO)C(C)C [Example 20II, (S)-1-(1-hydroxy-3-methylbutan-2-yl)-7-methoxy-4-oxo-6-(2,4,5-trifluorobenzylamino)-1,4-dihydro-1,8-naphthyridine-3-carboxylic acid] | < 7.00 |
| COc1nc2c(cc1NCc1ccc(Cl)cc1)c(=O)c(C(=O)O)cn2[C@H](CO)C(C)C [Example 20J, (S)-6-(4-chlorobenzylamino)-1-(1-hydroxy-3-methylbutan-2-yl)-7-methoxy-4-oxo-1,4-dihydro-1,8-naphthyridine-3-carboxylic acid] | < 7.00 |
| COc1nc2c(cc1NC1CCCc3ccccc31)c(=O)c(C(=O)O)cn2[C@H](CO)C(C)C (stereo partly drawn) [Example 20JJ, 1-((S)-1-hydroxy-3-methylbutan-2-yl)-7-methoxy-4-oxo-6-(1,2,3,4-tetrahydronaphthalen-1-ylamino)-1,4-dihydro-1,8-naphthyridine-3-carboxylic acid] | < 7.00 |
| COc1nc2c(cc1NCc1ccc(Cl)c(Cl)c1)c(=O)c(C(=O)O)cn2[C@H](CO)C(C)C [Example 20K, (S)-6-(3,4-dichlorobenzylamino)-1-(1-hydroxy-3-methylbutan-2-yl)-7-methoxy-4-oxo-1,4-dihydro-1,8-naphthyridine-3-carboxylic acid] | < 7.00 |
| COc1nc2c(cc1N[C@@H](C)c1ccc(F)cc1)c(=O)c(C(=O)O)cn2[C@H](CO)C(C)C [Example 20KK, 6-((S)-1-(4-fluorophenyl)ethylamino)-1-((S)-1-hydroxy-3-methylbutan-2-yl)-7-methoxy-4-oxo-1,4-dihydro-1,8-naphthyridine-3-carboxylic acid] | < 7.00 |
| COc1nc2c(cc1NCc1cccc(Cl)c1Cl)c(=O)c(C(=O)O)cn2[C@H](CO)C(C)C [Example 20L, (S)-6-(2,3-dichlorobenzylamino)-1-(1-hydroxy-3-methylbutan-2-yl)-7-methoxy-4-oxo-1,4-dihydro-1,8-naphthyridine-3-carboxylic acid] | < 7.00 |
| COc1nc2c(cc1N[C@H](C)c1ccc(F)cc1)c(=O)c(C(=O)O)cn2[C@H](CO)C(C)C [Example 20LL, 6-((R)-1-(4-fluorophenyl)ethylamino)-1-((S)-1-hydroxy-3-methylbutan-2-yl)-7-methoxy-4-oxo-1,4-dihydro-1,8-naphthyridine-3-carboxylic acid] | < 7.00 |
| COc1nc2c(cc1NCc1ccccc1Cl)c(=O)c(C(=O)O)cn2[C@H](CO)C(C)C [Example 20M, (S)-6-(2-chlorobenzylamino)-1-(1-hydroxy-3-methylbutan-2-yl)-7-methoxy-4-oxo-1,4-dihydro-1,8-naphthyridine-3-carboxylic acid] | < 7.00 |
| COc1nc2c(cc1NCc1ccc(F)cc1)c(=O)c(C(=O)O)cn2[C@H](CO)C(C)(C)C [Example 20MM, (S)-6-(4-fluorobenzylamino)-1-(1-hydroxy-3,3-dimethylbutan-2-yl)-7-methoxy-4-oxo-1,4-dihydro-1,8-naphthyridine-3-carboxylic acid] | < 7.00 |
| COc1nc2c(cc1NCc1ccc(F)c(F)c1)c(=O)c(C(=O)O)cn2[C@H](CO)C(C)C [Example 20N, (S)-6-(3,4-difluorobenzylamino)-1-(1-hydroxy-3-methylbutan-2-yl)-7-methoxy-4-oxo-1,4-dihydro-1,8-naphthyridine-3-carboxylic acid] | < 7.00 |
| COc1nc2c(cc1NCc1ccccc1)c(=O)c(C(=O)O)cn2[C@H](CO)C(C)C [Example 20O, (S)-6-(benzylamino)-1-(1-hydroxy-3-methylbutan-2-yl)-7-methoxy-4-oxo-1,4-dihydro-1,8-naphthyridine-3-carboxylic acid] | < 7.00 |
| COc1nc2c(cc1Nc1cccc(Cl)c1F)c(=O)c(C(=O)O)cn2[C@H](CO)C(C)C [Example 20OO, (S)-6-(3-chloro-2-fluorophenylamino)-1-(1-hydroxy-3-methylbutan-2-yl)-7-methoxy-4-oxo-1,4-dihydro-1,8-naphthyridine-3-carboxylic acid] | < 7.00 |
| COc1nc2c(cc1Nc1ccc(Cl)c(F)c1)c(=O)c(C(=O)O)cn2[C@H](CO)C(C)C [Example 20PP, (S)-6-(4-chloro-3-fluorophenylamino)-1-(1-hydroxy-3-methylbutan-2-yl)-7-methoxy-4-oxo-1,4-dihydro-1,8-naphthyridine-3-carboxylic acid] | < 7.00 |

From patent publication US20110166123A1, “NOVEL COMPOSITIONS AND METHODS OF USE” (priority 2008, published 2011)
